The assay has as its target T1, human GLP1R (Homo sapiens, UniProt P43220).
T1 construct: expressed in transfected cells; host or cells: CHO cells (ATCC), transient transfection with pCMV-human GLP1R
Description: Human GLP-1 receptor transfected cell assay (MRE/CRE-luciferase reporter gene, agonist activity). It counts as cell-based. The settings on record: 6 h; for activation at 3 µM: concentration 3 μM; for activation at 1 µM: concentration 1 μM. Put shortly: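 CHO cells transiently co-transfected with human GLP1R and MRE/CRE-driven luciferase reporter plasmids. Compound or GLP-1 (7-36 amide) standard dilution series added for 6 h at 37 °C, 5% CO2. Agonist activity read as Bright-Glo luciferase luminescence.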
In general terms: Reporter assays use an easily measured gene product as a stand-in for the process of interest.

[1] abbreviates: concentration 10 μM, read-out: Activity (agonist), percentage of the activity of the control.
The mark [2] stands for this setting: concentration 3.16 μM, read-out: Activity (agonist), percentage of the activity of the control.
[3] abbreviates: read-out: Activity (agonist), percentage of the activity of the control.
[4] abbreviates: conc. 10 μM, percentage of the activity of the control, read-out: Agonist Activity.

Like-named read-outs stand apart in the source and are kept apart here.

T1 sequence (P43220 24-463): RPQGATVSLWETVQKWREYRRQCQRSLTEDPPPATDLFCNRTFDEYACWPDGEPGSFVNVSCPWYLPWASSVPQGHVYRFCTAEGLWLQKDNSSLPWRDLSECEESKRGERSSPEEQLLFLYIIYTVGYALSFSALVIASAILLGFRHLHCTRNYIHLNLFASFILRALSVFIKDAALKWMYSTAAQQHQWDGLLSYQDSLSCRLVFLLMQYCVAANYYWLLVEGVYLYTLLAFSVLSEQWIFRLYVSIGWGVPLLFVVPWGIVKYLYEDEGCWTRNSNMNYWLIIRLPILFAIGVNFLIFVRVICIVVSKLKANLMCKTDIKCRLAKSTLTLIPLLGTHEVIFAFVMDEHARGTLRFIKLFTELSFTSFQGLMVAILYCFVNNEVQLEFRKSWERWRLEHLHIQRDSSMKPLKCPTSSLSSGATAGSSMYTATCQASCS

For `CC(C)(C)OC(=O)Nc1ccc(-c2nc(-c3ccc(CC(NC(=O)c4cccc(Nc5ccccc5)c4)C(=O)O)cc3F)no2)cc1` (stereo not drawn) [Compound 3T], under setting [1], the activation at 10 µM was in the range of 40 to 60%.

In the case of `CC(C)(C)OC(=O)Nc1ccc(-c2nc(-c3ccc(CC(NC(=O)c4c[nH]c(-c5ccc(Cl)cc5)n4)C(=O)O)cc3F)no2)cc1` (stereo not drawn) [Compound 2S], the activation at 3.16 µM under setting [2] was greater than 60%.

With `CC(C)(C)OC(=O)Nc1ccc(-c2nc(-c3ccc(CC(NC(=O)c4cc(-c5ccc(F)cc5)n[nH]4)C(=O)O)cc3F)no2)cc1` (stereo not drawn) [Compound 3R], the activation at 3 µM under setting [3] was greater than 60%.

Take `CC(C)(C)OC(=O)Nc1ccc(-c2nc(-c3ccc(CC(NC(=O)Nc4ccc(-c5ccccc5)cn4)C(=O)O)cc3F)no2)cc1` (stereo not drawn) [Compound 13X]: the activation at 10 µM under setting [4] is greater than 60%.

As for `Cc1ccc(-c2cc(NC(=O)NC(Cc3ccc(-c4noc(-c5ccc(NC(=O)OC(C)(C)C)cc5)n4)c(F)c3)C(=O)O)[nH]n2)cc1` (stereo not drawn) [Compound 12G], under setting [4], the activation at 10 µM was greater than 60%.

Consider `CC(C)(C)OC(=O)Nc1ccc(-c2nc(-c3ccc(CC(NS(=O)(=O)c4cccc5cccnc45)C(=O)O)cc3F)no2)cc1` (stereo not drawn) [Compound 11J], for which the activation at 10 µM under setting [4] is greater than 60%.

Consider `CC(C)(C)OC(=O)Nc1ccc(-c2nc(-c3ccc(CC(NC(=O)Cc4ccc(-c5ccc(C(F)(F)F)cc5)cc4)C(=O)O)cc3F)no2)cc1` (stereo not drawn) [Compound 5I], for which, under setting [3], the activation at 1 µM was greater than 60%.

For the compound `Cc1ccc(-c2nc(C(=O)NC(Cc3ccc(-c4noc(-c5ccc(NC(=O)OC(C)(C)C)cc5)n4)c(F)c3)C(=O)O)co2)cc1` (stereo not drawn) [Compound 2X], the activation at 10 µM under setting [1] is greater than 60%.

For the compound `CC(C)(C)OC(=O)Nc1ccc(-c2nc(-c3ccc(CC(NC(=O)c4cccc(-c5ccc(Cl)cc5)c4)C(=O)O)cc3F)no2)cc1` (stereo not drawn) [Compound 2G], the activation at 10 µM under setting [1] is 40 to 60%.

For `Cc1ccc(CNC(=O)C(Cc2ccc(OC(=O)c3ccc(NC(=O)OC(C)(C)C)cc3)c(F)c2)c2nnn[nH]2)cc1` (stereo not drawn) [Compound 11D], the activation at 10 µM under setting [4] lay within 20 to 40%.

As to `Cc1ccc(-c2ccc(C(=O)NC(Cc3ccc(-c4noc(-c5ccc(NC(=O)C(C)C)cc5)n4)c(F)c3)C(=O)O)o2)cc1` (stereo not drawn) [Compound 2C], the activation at 3 µM under setting [3] lay in the range of 40 to 60%.

Regarding `CC(C)(C)OC(=O)Nc1ccc(-c2nc(-c3ccc(CC(NC(=O)c4ncn(-c5ccc(C(C)(C)C)cc5)n4)C(=O)O)cc3F)no2)cc1` (stereo not drawn) [Compound 3I], the activation at 10 µM under setting [1] is 40 to 60%.

Take `Cc1ccc(-c2ccc(C(=O)NC(Cc3ccc(-c4nnc(-c5ccc(NC(=O)OC(C)(C)C)cc5)o4)c(F)c3)C(=O)O)o2)cc1` (stereo not drawn) [Compound 14F]: for the setting “conc. 3.16 μM, percentage of the activity of the control, read-out: Agonist Activity”, the activation at 3.16 µM lay within 40 to 60%.

Consider `Cc1ccc(-c2cccc(C(=O)NC(Cc3ccc(-c4noc(-c5ccc(NC(=O)OC(C)(C)C)cc5)n4)c(F)c3)C(=O)O)c2)cc1` (stereo not drawn) [Compound 11N], for which, under setting [4], the activation at 10 µM is greater than 60%.

On to `Cc1ccc(-c2nc(C(=O)NC(Cc3ccc(-c4noc(-c5ccc(NC(=O)OC(C)(C)C)cc5)n4)c(F)c3)C(=O)O)c[nH]2)cc1` (stereo not drawn) [Compound 2R], for which the activation at 3.16 µM under setting [2] is greater than 60%.

Regarding `Cc1ccc(-c2ccc(C(=O)N[C@H](Cc3ccc(-c4cc(-c5ccc(NC(=O)OC(C)C)cc5)[nH]n4)c(F)c3)C(=O)O)o2)cc1` [Compound 5P], under setting [1], the activation at 10 µM is greater than 60%.

Consider `Cc1ccc(-c2ccc(NC(=O)NC(Cc3ccc(-c4noc(-c5ccc(NC(=O)OC(C)(C)C)cc5)n4)c(F)c3)C(=O)O)cn2)cc1` (stereo not drawn) [Compound 4O], for which the activation at 10 µM under setting [1] was greater than 60%.

With `CC(C)(C)OC(=O)Nc1ccc(-c2nc(-c3ccc(CC(NS(=O)(=O)c4ccc(Br)c(F)c4)C(=O)O)cc3F)no2)cc1` (stereo not drawn) [Compound 3O], the activation at 1 µM under setting [3] was in the range of 20 to 40%.

For `Cc1ccc(-c2cccc(C(=O)N[C@H](Cc3ccc(-c4noc(-c5ccc(NC(=O)OC(C)(C)C)cc5)n4)c(F)c3)C(=O)O)c2)cc1Cl` [Compound 6H], the activation at 3.16 µM under setting [2] was greater than 60%.

As to `CC(C)(C)OC(=O)Nc1ccc(-c2nc(-c3ccc(CC(NC(=O)Nc4ccc(-c5ccc(C(F)(F)F)cc5)cn4)C(=O)O)cc3F)no2)cc1` (stereo not drawn) [Compound 13K], the activation at 10 µM under setting [4] was greater than 60%.

Take `CC(C)(C)OC(=O)Nc1ccc(-c2nc(-c3ccc(CC(NS(=O)(=O)c4ccc(-c5ccccc5)cc4)C(=O)O)cc3F)no2)cc1` (stereo not drawn) [Compound 11K]: the activation at 10 µM under setting [4] is greater than 60%.

As for `Cc1ccc(-c2nc(C(=O)NC(Cc3ccc(C#Cc4ccc(NC(=O)OC(C)(C)C)cc4)c(F)c3)C(=O)O)cs2)cc1` (stereo not drawn) [Compound 3E], under setting [3], the activation at 1 µM fell in the range of 40 to 60%.

Take `COc1ccc(N2CCN(C(=O)NC(Cc3ccc(-c4noc(-c5ccc(NC(=O)OC(C)(C)C)cc5)n4)c(F)c3)C(=O)O)CC2)cc1` (stereo not drawn) [Compound 4J]: under setting [2], the activation at 3.16 µM was 40 to 60%.

`CC(C)(C)OC(=O)Nc1ccc(-c2nc(-c3ccc(CC(NC(=O)N4CCC(c5ccccc5)C4)C(=O)O)cc3F)no2)cc1` (stereo not drawn) [Compound 5D]: the activation at 3 µM under setting [3] was greater than 60%.

For `CC(C)(C)OC(=O)Nc1ccc(-c2nc(-c3ccc(CC(NC(=O)N4CCCN(c5ccc(C#N)cc5)CC4)C(=O)O)cc3F)no2)cc1` (stereo not drawn) [Compound 4P], under setting [1], the activation at 10 µM is greater than 60%.

Take `CC(C)Oc1ccc(-c2ccc(C(=O)N[C@H](Cc3ccc(-c4noc(-c5ccc(NC(=O)OC(C)(C)C)cc5)n4)c(F)c3)C(=O)O)o2)cc1F` [Compound 6O]: under setting [3], the activation at 1 µM is 20 to 40%.

For the compound `CC(C)(C)OC(=O)Nc1ccc(-c2nc(-c3ccc(C[C@@H](NC(=O)c4cccc(-c5ccc(Cl)cc5F)c4)C(=O)O)cc3F)no2)cc1` [Compound 6C], the activation at 10 µM under setting [1] is greater than 60%.

With `CC(C)(C)OC(=O)Nc1ccc(-c2nc(-c3ccc(CC(NC(=O)c4cccc(-c5ccc(C(F)(F)F)cc5)c4)C(=O)O)cc3F)no2)cc1` (stereo not drawn) [Compound 1W], the activation at 3 µM under setting [3] was greater than 60%.

Regarding `CC(C)(C)OC(=O)Nc1ccc(-c2nc(-c3ccc(CC(NC(=O)c4ccc(-c5ccc(C(F)(F)F)cc5)o4)C(=O)O)cc3F)no2)cc1` (stereo not drawn) [Compound 11O], the activation at 10 µM under setting [4] is greater than 60%.

For `Cc1ccc(-c2cccc(C(=O)N[C@H](Cc3ccc(-c4noc(-c5ccc(NC(=O)OC(C)(C)C)cc5)n4)c(F)c3)C(=O)O)c2)s1` [Compound 6J], the activation at 10 µM under setting [1] was greater than 60%.

On to `Cc1ccc(CN2CCN(S(=O)(=O)NC(Cc3ccc(-c4noc(-c5ccc(NC(=O)OC(C)(C)C)cc5)n4)c(F)c3)C(=O)O)CC2)cc1` (stereo not drawn) [Compound 3X, 3-{4-[5-(4-tert-Butoxycarbonylamino-phenyl)-[1,2,4]oxadiazol-3-yl]-3-fluoro-phenyl}-2-[4-(4-methyl-benzyl)-piperazine-1-sulfonylamino]-propionic acid], for which the activation at 3 µM under setting [3] was greater than 60%.

Regarding `CC(C)(C)OC(=O)Nc1ccc(-c2nc(-c3ccc(C[C@@H](NC(=O)c4cccc(C#CC5CC5)c4)C(=O)O)cc3F)no2)cc1` [Compound 6T], the activation at 1 µM under setting [3] was in the range of 20 to 40%.

On to `CC(C)(C)OC(=O)Nc1ccc(-c2nc(-c3ccc(C[C@@H](NS(=O)(=O)c4ccc(-c5ccccc5)cc4)C(=O)O)cc3F)no2)cc1` [Compound 3Q], for which the activation at 1 µM under setting [3] fell in the range of 20 to 40%.

As for `Cn1nc(C(C)(C)C)cc1NC(=O)NC(Cc1ccc(-c2noc(-c3ccc(NC(=O)OC(C)(C)C)cc3)n2)c(F)c1)C(=O)O` (stereo not drawn) [Compound 5B], under setting [3], the activation at 3 µM fell in the range of 40 to 60%.

As for `CC(C)(C)OC(=O)Nc1ccc(-c2nc(-c3ccc(CC(NC(=O)Nc4ccc(C(F)(F)F)cc4)C(=O)O)cc3F)no2)cc1` (stereo not drawn) [Compound 13H], the activation at 10 µM under setting [4] was greater than 60%.

Take `CC(C)(C)OC(=O)Nc1ccc(-c2nc(-c3ccc(C[C@@H](NC(=O)c4cccc(-c5ccccc5F)c4)C(=O)O)cc3F)no2)cc1` [Compound 6P]: the activation at 1 µM under setting [3] lay within 40 to 60%.

For `CC(C)(C)OC(=O)Nc1ccc(-c2nc(-c3ccc(CC(NS(=O)(=O)c4ccc([N+](=O)[O-])cc4)C(=O)O)cc3F)no2)cc1` (stereo not drawn) [Compound 11H], under setting [4], the activation at 10 µM fell in the range of 40 to 60%.

With `Cc1ccc(-c2ccc(C(=O)NC(Cc3cc(F)cc(C#Cc4ccc(NC(=O)OC(C)(C)C)cc4)c3)C(=O)O)o2)cc1` (stereo not drawn) [Compound 7E], the activation at 1 µM under setting [3] was greater than 60%.

On to `Cc1ccc(-c2ccc(C(=O)N[C@H](Cc3ccc(C)c(-c4noc(-c5ccc(NC(=O)OC(C)(C)C)cc5)n4)c3)C(=O)O)o2)cc1` [Compound 6Z], for which the activation at 1 µM under setting [3] was in the range of 40 to 60%.

In the case of `Cc1ccc(-c2ccc(NC(=O)NC(Cc3ccc(-c4noc(-c5ccc(NC(=O)OC(C)(C)C)cc5)n4)c(F)c3)C(=O)O)nc2)cc1F` (stereo not drawn) [Compound 5F], the activation at 10 µM under setting [1] was greater than 60%.

As to `Cc1ccc(-c2ccc(C(=O)N[C@H](Cc3cc(F)cc(-c4noc(-c5ccc(NC(=O)OC(C)(C)C)cc5)n4)c3)C(=O)O)o2)cc1` [Compound 6X], the activation at 3 µM under setting [3] fell in the range of 40 to 60%.

In the case of `COc1ccc(C#CC(=O)N[C@H](Cc2ccc(-c3noc(-c4ccc(NC(=O)OC(C)(C)C)cc4)n3)c(F)c2)C(=O)O)cc1` [Compound 6M], the activation at 10 µM under setting [1] fell in the range of 20 to 40%.

For `Cc1ccc(NC(=O)NC(Cc2ccc(-c3noc(-c4ccc(NC(=O)OC(C)(C)C)cc4)n3)c(F)c2)C(=O)O)cc1` (stereo not drawn) [Compound 4M], the activation at 3.16 µM under setting [2] is greater than 60%.

For `CC(C)(C)OC(=O)Nc1ccc(-c2nc(-c3ccc(CC(NC(=O)Nc4ccc(-c5ccccc5F)cn4)C(=O)O)cc3F)no2)cc1` (stereo not drawn) [Compound 5C], the activation at 3 µM under setting [3] was greater than 60%.

For `CC(C)(C)OC(=O)Nc1ccc(-c2nc(-c3ccc(CC(NC(=O)c4cccc(-c5ccc(Cl)cc5)c4)C(=O)O)cc3F)no2)cc1` (stereo not drawn) [Compound 13Q], under setting [4], the activation at 10 µM was greater than 60%.

With `CC(C)(C)OC(=O)Nc1ccc(-c2nc(-c3ccc(CC(NC(=O)c4cn(Cc5ccc(F)c(F)c5)nn4)C(=O)O)cc3F)no2)cc1` (stereo not drawn) [Compound 3C], the activation at 10 µM under setting [1] is greater than 60%.

Turning to `CC(C)(C)OC(=O)Nc1ccc(-c2ccc(-c3ccc(CC(NC(=O)c4ccc(-c5ccc(F)cc5)o4)C(=O)O)cc3F)s2)cc1` (stereo not drawn) [Compound 5O], under setting [2], the activation at 3.16 µM was greater than 60%.

With `Cc1ccc(-c2ccc(C(=O)N[C@H](Cc3cc(Br)cc(-c4noc(-c5ccc(NC(=O)OC(C)(C)C)cc5)n4)c3)C(=O)O)o2)cc1` [Compound 6Y], under setting [3], the activation at 1 µM was greater than 60%.

Source of the values: patent publication US8748412B2, “Phenylalanine derivatives and their use as non-peptide GLP-1 receptor modulators” (Argusina Bioscience Inc., priority 2011, dated 2014).
